Patent US12697328B2, “Methods for treating metastasis with cathepsin C inhibitors” (Shanghai Institute of Nutrition and Health, Chinese Academy …, priority 2020, dated 2026)
Values belong to the molecule of their own block, whether it stands above or below them.

Assays:
Assay type in all cases: cell-based
murine neutrophils = experiment: Reactive oxygen species (ROS) analysis of neutrophils pre-treated with 4T07 conditioned medium; conditions: 4T07 CM with CTSC overexpressed, inhibitors 10 μM, FIGS. 8C, 8E
Procedure: To measure the ROS levels, neutrophils were cultured in cancer cell CM or non-conditioned medium, and treated with DMSO or various inhibitors, including Sivelestat (10 μM), BAY11-7082 (10 μM) and SB203580 (10 μM) for 1 h at 37° C. Cells were then harvested and resuspended in assay buffer (PBS, 4 mM EGTA, pH 7.4, containing 10 μM CM-H2DCFDA, Invitrogen), incubated for 15 min at 37° C. in dark, washed with pre-chilled PBS, followed by FACS analysis within 30 min.
The release of reactive oxygen species (ROS) by neutrophils is known to induce NET formation. […] Commum. 6, 6673 (2015).
ROS analysis of murine neutrophils pre-treated with 4T07 conditioned medium show increased ROS production results from CTSC overexpression (FIG. 8E).

4T07 cancer cells = experiment: Three-dimensional spheroid culture of 4T07 cells in neutrophil medium; conditions: rmTSP-1 alone, FIG. 8H
Procedure: The procedure of 3D spheroids culture assay was previously reported (Taylor et al., “Lysyl oxidase contributes to mechanotransduction-mediated regulation of transforming growth factor-beta signaling in breast cancer cells,” Neoplasia 13:406-418 (2011)). Briefly, 4T07 cells (200 per well) were cultured in 48-well plates on 100% growth-factor-reduced Matrigel (356231, BD) cushions in spheroid medium (a 1:1 mixture of 1% FBS DMEM and medium from neutrophils cultured in the cancer cell CM, 50% Matrigel supplemented with 50 μg/ml mTSP-1 (7859-TH-050). Upon completed gelation, 250 μl of culture medium (a 1:1 mixture of 1% FBS DMEM and medium from neutrophils cultured in the cancer cell CM) with 10 μg/ml mTSP-1 (7859-TH-050) was added to each well and the culture medium was changed every three days. On day 7-10, the numbers of the spheroids were analyzed.
When both rmTSP-1 and an IL6-blocking antibody are added to CTSC overexpressing 4T07 conditioned medium, spheroid growth is inhibited (FIG. 8I, left panel). […] The inhibitory effects of α-IL6, DNase I, and a combination thereof, on spheroid formation can be seen in the images provided in FIG. 8I.

membrane-bound PR3 = biological target: T1, membrane-bound PR3 (Homo sapiens, UniProt P24158); experiment: Membrane-bound PR3 activity of neutrophils cultured with CM of SCP28 cells overexpressing CTSC; conditions: Sivelestat 10 μM, Alvelestat 10 μM, CTSGi 20 μM, FIG. 7D
T1 construct: endogenous in cells; host or cells: human peripheral-blood neutrophils (whole-cell suspension)
T1 sequence (P24158 28-248): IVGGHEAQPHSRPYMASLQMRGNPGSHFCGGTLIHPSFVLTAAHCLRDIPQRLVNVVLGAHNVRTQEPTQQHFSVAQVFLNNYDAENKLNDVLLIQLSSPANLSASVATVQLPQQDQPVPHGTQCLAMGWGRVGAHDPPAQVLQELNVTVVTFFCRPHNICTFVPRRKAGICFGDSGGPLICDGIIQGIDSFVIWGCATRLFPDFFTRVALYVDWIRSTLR
Procedure: The procedure of enzyme activity assays were conducted as previously reported (Korkmaz et aL, “Neutrophil proteinase 3 and dipeptidyl peptidase I (cathepsin C) as pharmacological targets in granulomatosis with polyangiitis (Wegener granulomatosis),” Semin. Immunopathol. 35:411-421 (2008)). The PR3 or NE enzymatic activity was quantified by detecting the rate of hydrolysis of the PR3-specific substrate (Abz)-VADnorVADRQ-(EDDnp) or NE specific substrate (Abz)-APEEIMRRQ-(EDDnp) by cell suspension or free enzymes. To analyze membrane-bound PR3 activity, neutrophils were cultured in cancer cell CM or non-conditioned medium, and treated with DMSO or various inhibitors, including Sivelestat (10 μM), Alvelestat (10 μM) and CTSGi (20 μM) for 30-45 min at 37° C. Then, cells were suspended in activity buffer (5×10^6 per ml, PBS, 4 mM EGTA, pH 7.4) with 15 μM of the PR3-specific substrate, and the kinetic of hydrolysis was followed by measuring the fluorescence at λex=320 nm and λem=420 nm. For activation of PR3 in isolated plasma membrane fraction, recombinant human CTSC (1071-CY, R&D) was activated according to the manufacturer's instruction. […] The activity of free PR3 and NE were measured in the assay buffer (50 mM Tris, 750 mM NaCl, pH 7.4) with 15 μM specific substrates by recording the fluorescence at λex=320 nm and λem=420 nm. […]

IL-1β = IL-1β secretion of neutrophils pre-treated with CM of SCP28 cancer cells (ELISA); conditions: human neutrophils pre-treated with CM of SCP28 with CTSC overexpressed; FIG. 7H
Procedure: ELISA kits were used to assay the levels of human IL-1β (88-7621-88, ThermoFisher), mouse IL-1β (432604, Biolegend), mouse IL6 (88-7064-88, ThermoFisher), mouse CCL3 (88-56013-88, ThermoFisher) in cell culture supernatants or sera according to the manufacturer's instruction. Briefly, 96-well MaxiSorp™ ELISA Plates (44-2404, ThermoFisher) was coated with capture antibody overnight at 4° C. in coating buffer (15 mM of Na2CO3, 35 mM of NaHCO3, at pH 9.6). After three washes in PBS, the wells were blocked with 5% BSA in PBS for 45 min at room temperature. Then, 100 μl of cell culture supernatants or sera and standard samples were added into the wells and incubated for 2 h at room temperature, and the plates were washed three times with washing buffer (1% BSA, 0.05% Tween-20 in PBS). Next, biotin-conjugated detection antibody in 2.5% BSA was added into the wells and incubated for 2 h at room temperature. After three washes with washing buffer, HRP-streptavidin was incubated for 45 min at room temperature. Then, signals were detected using TMB solution and read at 450 nm.

p38 = p38 phosphorylation in neutrophils pre-treated with 4T1 conditioned medium and/or rhPR3; conditions: murine neutrophils pre-treated with 4T1 CM and/or rhPR3, regardless of CTSC knockdown; FIG. 8D
Procedure: Cultured cells were collected by scraper or trypsinized and then lysed with lysis buffer (50 mM Tris-HCl, 150 mM NaCl, 1% NP-40 detergent, 0.5% sodium deoxycholate, 0.1% SDS with phosphatase and protease inhibitors), and dispersed tissue were homogenized in RIPA buffer on ice for 15 min, followed by centrifugation at 17,000 g for 15 min. The protein concentration was measured with a BCA Protein Assay Kit. Proteins of […] were loaded for membrane proteins, IL-1β processing, p65 phosphorylation and the other assays, respectively, and separated on 8-12% SDS-polyacrylamide gel. For cancer cell conditioned medium (CM) collection, cells were grown to ~80% confluence in 10 cm culture dishes. After three times washing with serum-free medium at 37° C., the cells were incubated in serum-free medium at 37° C. for 24 h. The CM were collected, centrifuged at 2,000 g for 10 min, filtrated by 0.22 μm filters, stored at −80° C. until used. The secreted proteins in CM were collected by TCA precipitation. Briefly, 25% v/v TCA was added into 1 ml CM with phosphatase and protease inhibitors, incubated overnight at 4° C., and then centrifuged at 20,000 g for 60 min, after which the supernatant was discarded and the pellet was washed twice with 1 ml pre-chilled acetone, centrifuged again at 20,000 g for 5 min at 4° C. […]

Molecule: C[S+]([O-])c1ccc(-c2nc(-c3ccncc3)c(-c3ccc(F)cc3)[nH]2)cc1 (centres unmarked) [SB203580]
- ROS production / ROS levels (murine neutrophils): significantly reduces

Molecule: rmTSP-1: recombinant murine TSP-1, a metastasis-suppressive ECM protein
- spheroid growth of 4T07 cancer cells (4T07 cancer cells; CTSC overexpressing 4T07 conditioned medium): does not block
- spheroid growth of 4T07 cancer cells (4T07 cancer cells; neutrophil medium pre-treated with PMA): unable to block

- upregulated PR3 activity resulting from CTSC overexpression (membrane-bound PR3): no effect
Molecule: Cc1c(-c2ccnn2C)cc(C(=O)NCc2ccc(S(C)(=O)=O)cn2)c(=O)n1-c1cccc(C(F)(F)F)c1 [Alvelestat]
- IL-1β levels (secretion) of neutrophils (IL-1β): only PR3 inhibitor Silvelestat reduces

Molecule: Cc1ccc(S(=O)(=O)/C=C/C#N)cc1 [BAY 11-7082]
- ROS production / ROS levels (murine neutrophils): no effect
- IL-1β levels (secretion) of neutrophils (IL-1β): does not reduce

B1: rhPR3: recombinant human active PR3 (protein, UniProt P24158 28-248, looked up)
Myeloblastin: T1 sequence (P24158 28-248)
- p38 phosphorylation (p38): increased
